SMILES strings stand for the structures. Toxic doses and inconclusive results are not listed.

Experimental findings from PubChem BioAssay AID248 (DTP/NCI, 2004) are described below.

The assay has as its system L1210 leukemia ip in BDF1 mice, survival T/C. In words: NCI In Vivo Anticancer Drug Screen. Data for tumor model L1210 Leukemia (intraperitoneal) in B6D2F1 (BDF1) mice. As to conditions: endpoint: mean survival time, higher = longer survival. The essentials:
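Mice bearing the transplanted tumor received compound or vehicle. Survival of the treated group was divided by that of the vehicle-treated control group to give the ratio.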

Where [1] appears, read: dose: 50.0 mg/kg/injection, schedule: Q01DX009 (ip), vehicle: Klucel (hydroxypropylcellulose) (HPC).
Where [2] appears, read: dose: 100.0 mg/kg/injection, schedule: Q01DX009 (ip), vehicle: Klucel (hydroxypropylcellulose) (HPC).
Setting [3] is: dose: 50.0 mg/kg/injection, schedule: Q01DX009 (ip), vehicle: saline.
[4] abbreviates: dose: 200.0 mg/kg/injection, schedule: Q01DX009 (ip), vehicle: Klucel (hydroxypropylcellulose) (HPC).
Where [5] appears, read: dose: 100.0 mg/kg/injection, schedule: Q04DX003 (ip), vehicle: saline.
[6] abbreviates: dose: 200.0 mg/kg/injection, schedule: Q04DX003 (ip), vehicle: saline.
[7] abbreviates: dose: 100.0 mg/kg/injection, schedule: Q01DX009 (ip), vehicle: saline.
[8] abbreviates: dose: 200.0 mg/kg/injection, schedule: Q01DX009 (ip), vehicle: saline.
Setting [9] is: dose: 100.0 mg/kg/injection, schedule: Q01DX009 (ip), vehicle: saline with Tween-80.
[10] abbreviates: dose: 100.0 mg/kg/injection, schedule: Q04DX003 (ip), vehicle: saline with Tween-80.
Setting [11] is: dose: 200.0 mg/kg/injection, schedule: Q01DX009 (ip), vehicle: saline with Tween-80.
Setting [12] is: dose: 200.0 mg/kg/injection, schedule: Q04DX003 (ip), vehicle: saline with Tween-80.
Setting [13] is: dose: 400.0 mg/kg/injection, schedule: Q04DX003 (ip), vehicle: saline with Tween-80.
The mark [14] stands for this setting: dose: 400.0 mg/kg/injection, schedule: Q04DX003 (ip), vehicle: saline.
The mark [15] stands for this setting: dose: 400.0 mg/kg/injection, schedule: Q01DX009 (ip), vehicle: Klucel (hydroxypropylcellulose) (HPC).
[16] abbreviates: dose: 100.0 mg/kg/injection, schedule: Q01DX001 (ip), vehicle: carboxymethylcellulose (CMC).
The mark [17] stands for this setting: dose: 400.0 mg/kg/injection, schedule: Q01DX009 (ip), vehicle: saline.
The mark [18] stands for this setting: dose: 100.0 mg/kg/injection, schedule: Q04DX003 (ip), vehicle: Klucel (hydroxypropylcellulose) (HPC).
Where [19] appears, read: dose: 200.0 mg/kg/injection, schedule: Q04DX003 (ip), vehicle: Klucel (hydroxypropylcellulose) (HPC).

On to `NC(Cc1cnc(N=Nc2ccc(N=Nc3ncc(CC(N)C(=O)O)[nH]3)cc2)[nH]1)C(=O)O` (stereo not given), for which the T/C is, setting by setting: under setting [1], 89 % of control; under setting [2], 89 % of control.

As to `COc1ccc(Cl)cc1/C=C/C=N/NC(=O)c1cccc(C)c1O`, the T/C by setting is: (dose: 75.0 mg/kg/injection, schedule: Q01DX001 (ip), vehicle: carboxymethylcellulose (CMC)) 86 % of control; (dose: 150.0 mg/kg/injection, schedule: Q01DX001 (ip), vehicle: carboxymethylcellulose (CMC)) 89 % of control; (dose: 300.0 mg/kg/injection, schedule: Q01DX001 (ip), vehicle: carboxymethylcellulose (CMC)) 86 % of control.

As to `O=C(O)c1ccccc1C1C=CCCC1` (stereo not given), the T/C was 101 % of control (dose: 100.0 mg/kg/injection, schedule: Q04DX002 (ip), vehicle: saline with Tween-80); 101 % of control (dose: 200.0 mg/kg/injection, schedule: Q04DX002 (ip), vehicle: saline with Tween-80); 104 % of control (dose: 400.0 mg/kg/injection, schedule: Q04DX002 (ip), vehicle: saline with Tween-80).

Take `CCN(CC)CCCOC(=O)c1ccc(N)cc1`: the T/C was 103 % of control (dose: 12.5 mg/kg/injection, schedule: Q01DX009 (ip), vehicle: saline); 97 % of control (dose: 25.0 mg/kg/injection, schedule: Q01DX009 (ip), vehicle: saline); 98 % of control under setting [3].

For the compound `COc1cc(O)c2ccccc2c1OC(C)=O`, the T/C is, setting by setting: under setting [1], 101 % of control; under setting [2], 90 % of control; under setting [4], 93 % of control.

With `O=C(NCCCCCCNC(=O)N(Cc1ccccc1)Cc1ccccc1)N(Cc1ccccc1)Cc1ccccc1`, the T/C runs as follows: (dose: 100.0 mg/kg/injection, schedule: Q04DX002 (ip), vehicle: saline) 105 % of control; (dose: 200.0 mg/kg/injection, schedule: Q04DX002 (ip), vehicle: saline) 97 % of control; (dose: 400.0 mg/kg/injection, schedule: Q04DX002 (ip), vehicle: saline) 108 % of control.

On to `COc1ccccc1N(C(C)=O)C1=C(Cl)C(=O)c2ccccc2C1=O`, for which the T/C is, setting by setting: (dose: 10.0 mg/kg/injection, schedule: Q01DX001 (ip), vehicle: saline) 97 % of control; (dose: 20.0 mg/kg/injection, schedule: Q01DX001 (ip), vehicle: saline) 97 % of control.

`CC1=CC(=O)C=CC1(C)C(Cl)(Cl)Cl` (stereo not given): the T/C is, setting by setting: under setting [2], 95 % of control; (dose: 100.0 mg/kg/injection, schedule: Q04DX003 (ip), vehicle: other) 100 % of control; under setting [4], 91 % of control; (dose: 200.0 mg/kg/injection, schedule: Q04DX003 (ip), vehicle: other) 94 % of control; (dose: 400.0 mg/kg/injection, schedule: Q04DX003 (ip), vehicle: other) 101 % of control.

Take `C[n+]1ccccc1C(=O)O` (tested in a mixture with another compound): the T/C was 101 % of control under setting [5] and 98 % of control under setting [6].

`CC12C=CC(O1)C1C(=O)OC(=O)C12` (stereo not given): the T/C is 91 % of control under setting [3]; 96 % of control (dose: 75.0 mg/kg/injection, schedule: Q01DX001 (ip), vehicle: other); 100 % of control under setting [7]; 98 % of control (dose: 150.0 mg/kg/injection, schedule: Q01DX001 (ip), vehicle: other); 88 % of control under setting [8].

`N/N=C/C=N/Nc1cnccn1`: the T/C by setting is: under setting [2], 106 % of control; under setting [4], 86 % of control.

Regarding `CC1(C)c2ccccc2Nc2ccccc21`, the T/C under setting [9] is 86 % of control; the T/C under setting [10] is 97 % of control; the T/C under setting [11] was 89 % of control; the T/C under setting [12] is 101 % of control; the T/C (dose: 400.0 mg/kg/injection, schedule: Q01DX009 (ip), vehicle: saline with Tween-80) is 89 % of control; the T/C under setting [13] was 98 % of control.

For the compound `C=C([Si](C)(C)C)[Si](C)(C)C`, the T/C under setting [10] is 102 % of control, the T/C under setting [12] is 102 % of control and the T/C under setting [13] is 94 % of control.

As to `NNC(=S)N/N=C/c1ccc([N+](=O)[O-])s1`, the T/C was 87 % of control under setting [5], 89 % of control under setting [6] and 95 % of control under setting [14].

Turning to `COCCOC(=O)Cc1cccc2ccccc12`, the T/C is 90 % of control (dose: 222.0 mg/kg/injection, schedule: Q01DX Z (ip), vehicle: saline); 100 % of control (dose: 333.0 mg/kg/injection, schedule: Q01DX Z (ip), vehicle: saline); 110 % of control (dose: 500.0 mg/kg/injection, schedule: Q01DX Z (ip), vehicle: saline).

Consider `NC(=O)C1=C(CCCCl)c2ccccc2C1=O`, for which the T/C (dose: 50.0 mg/kg/injection, schedule: Q01DX009 (ip), vehicle: saline with Tween-80) was 100 % of control.

As for `Cc1cc(C)cc(-n2nnc3ccccc3c2=O)c1`, the T/C under setting [2] was 102 % of control; the T/C under setting [5] is 91 % of control; the T/C under setting [4] was 98 % of control; the T/C under setting [6] was 93 % of control; the T/C under setting [15] is 101 % of control; the T/C under setting [14] was 88 % of control.

As for `CC(C)CCOP(=S)(N1CC1)N1CC1`, the T/C runs as follows: (dose: 2.0 mg/kg/injection, schedule: Q01DX015 (ip), vehicle: carboxymethylcellulose (CMC)) 101 % of control; (dose: 4.0 mg/kg/injection, schedule: Q01DX015 (ip), vehicle: carboxymethylcellulose (CMC)) 103 % of control; (dose: 44.4 mg/kg/injection, schedule: Q01DX001 (ip), vehicle: carboxymethylcellulose (CMC)) 117 % of control; under setting [16], 164 % of control.

For the compound `C1CCN(SN2CCCCC2)CC1`, the T/C by setting is: under setting [7], 100 % of control; under setting [8], 102 % of control.

With `COC(=O)c1ccnc(C(=O)OC)c1`, the T/C (dose: 100.0 mg/kg/injection, schedule: Q01DX001 (ip), vehicle: saline sonified) was 98 % of control; the T/C under setting [7] is 95 % of control; the T/C (dose: 200.0 mg/kg/injection, schedule: Q01DX001 (ip), vehicle: saline sonified) is 103 % of control; the T/C under setting [8] is 95 % of control; the T/C (dose: 400.0 mg/kg/injection, schedule: Q01DX001 (ip), vehicle: saline sonified) is 98 % of control; the T/C under setting [17] is 93 % of control.

With `COc1ccc2nc(N=Nc3c(N)nc(N)[nH]c3=O)sc2c1`, the T/C is, setting by setting: (dose: 50.0 mg/kg/injection, schedule: Q04DX003 (ip), vehicle: Klucel (hydroxypropylcellulose) (HPC)) 102 % of control; under setting [16], 106 % of control; under setting [18], 104 % of control; (dose: 200.0 mg/kg/injection, schedule: Q01DX001 (ip), vehicle: carboxymethylcellulose (CMC)) 106 % of control; under setting [19], 101 % of control; (dose: 400.0 mg/kg/injection, schedule: Q01DX001 (ip), vehicle: carboxymethylcellulose (CMC)) 101 % of control.

In the case of `C/C(=N\NC(=O)CCCCC(=O)N/N=C(\C)c1ccc(C)cc1)c1ccc(C)cc1`, the T/C is, setting by setting: under setting [2], 88 % of control; under setting [4], 90 % of control; under setting [15], 91 % of control.

As to `C1CCC(=[N+]2CCCC2)CC1`, the T/C reads like this: under setting [7], 93 % of control; under setting [5], 106 % of control; under setting [8], 101 % of control; under setting [6], 104 % of control; under setting [17], 88 % of control; under setting [14], 102 % of control.

Consider `CCC(C)C(NC(=O)OCc1ccccc1)C(=O)ON1C(=O)CCC1=O` (stereo not given), for which the T/C under setting [9] is 94 % of control and the T/C under setting [11] was 96 % of control.

On to `O=C1OC(c2ccccc2)(c2ccccc2)c2ccccc21`, for which the T/C is, setting by setting: under setting [2], 93 % of control; under setting [18], 107 % of control; under setting [4], 101 % of control; under setting [19], 102 % of control; under setting [15], 88 % of control; (dose: 400.0 mg/kg/injection, schedule: Q04DX003 (ip), vehicle: Klucel (hydroxypropylcellulose) (HPC)) 100 % of control.
